# Assay results: patent publication US8648116B2, “Derivatives of N-(arylamino) sulfonamides including polymorphs as inhibitors of MEK as well as compositions, methods of use and methods for preparing the same” (Ardea Biosciences, Inc., priority 2005, dated 2014)
# “And” between values parts separate entries of the source, which are not always exact repeats. Identical values can stand only once. Like-named read-outs stand apart in the source and are kept apart here.
# How the values were obtained:
# rat hepatocytes = assay: Primary hepatocyte toxicity (AK release, ATP, 48 hr); assay type: cell-based; conditions: for AK release (% Cell Survival) Hepatocytes Rat / ATP (% Cell Survival) Hepatocytes Rat: 48 hr
# Method: Cryopreserved rat hepatocytes were obtained from CellzDirect (Austin, Tex.) and plated on collagen coated 96-well plates according to manufacturer's instructions. Drug was added 4 hr after plating (final DMSO concentration 0.5%).
# After 48 hr, supernatant AK levels were determined using Toxilight, and cellular ATP levels were determined using CellTiterGlo. Full kill values were determined using 15 μM VRX-14686.
# [1] = tested on: orthotopic HT-29 human colorectal adenocarcinoma; assay: Growth response of orthotopic HT-29 colon tumors in nude mice; assay type: in vivo, BALB/c nu/nu mice; conditions: for Caecum Weight / Tumour Weight: individual animals; for Average Caecum Weight / Average Tumour Weight: mice surviving to final day
# Method: Female BALB/c nu/nu mice (University of Adelaide, Waite Campus, SA, Australia), aged 7-12 weeks, with a body weight range: of 16.58-25.39 g (mean 21.52 g) were used for the study. The mice were divided into 6 Study groups (4 treatment groups and 2 control groups) as follows: • Number of Mice per Group: 10 in Groups 1 to 5 inclusive • 9 in ‘Take-Rate’ Control Group (Group 6)
# HT-29 human colorectal adenocarcinoma cells (Passage 4 from working stock VP-Stock 325) were cultured in RPMI1640 cell culture medium, which was supplemented with 10% FBS and penicillin-streptomycin (501 U/mL final concentration). The cells were harvested by trypsinisation, washed twice in HBSS and counted. The cells were then resuspended in HESS and adjusted to a final volume containing 2×10^8 cells/mL. Prior to inoculation, the incision site was liberally swabbed with alcohol and an incision made through the abdominal wall to expose the caecum wall. The needle was introduced through the surface of the caecum wall where 5 μL of cells (1×10^6 cells) were discharged.
# A stock solution was prepared weekly and stored at 4° C. Dosing solutions were prepared on each day of administration.
# Caecum and tumor wet weight were measured when each were excised post-mortem on the termination day of the study. At the termination of the study, the caecum was excised from all mice in each study group and weighed with the tumors intact. The tumors were then excised from the caecum and weighed.
# A two-sample t-test was used to determine the significance in body weight change within a treatment group between Day 0 and the termination day of the study. […] In these groups, a two-sample t-test was used to determine the significance in body weight change within a treatment group between Day 0 and the final treatment day of the study, and between the last treatment day and the termination day of the study.
# A One-Way Analysis of Variance (ANOVA) (All Pairwise Multiple Comparison Procedure and Multiple Comparison versus Control Group) was performed on the caecum weight and tumor weight data at the end of the study.
# A375 cells = assay: Anchorage-independent growth inhibition (MTS, 7 days); assay type: cell-based, human
smiles,measurement,setting,value
COc1cc(F)c(F)c(Nc2ccc(I)cc2F)c1NS(=O)(=O)C1(C[C@H](O)CO)CC1,cytotoxicity,rat hepatocytes; rat hepatocytes,little cytotoxicity
same,"HT-29 tumor and caecum weight, trend",[1]; 10 mg/kg p.o.,reduction
same,average caecum and tumor weights vs Vehicle Control,"[1]; 2, 10 and 50 mg/kg p.o.",no significant difference
same,GI50,"A375 cells; A375, anchorage independent, read-out: Mean GI50",84 nM
same,GI50,"A375 cells; A375 cells, read-out: GI50, anchorage independent growth (FIG. 12B)",22 nM
COc1cc(F)c(F)c(Nc2ccc(I)cc2F)c1NS(=O)(=O)C1(C[C@H](O)CO)CC1 [Compound A],AK release (% Cell Survival) Hepatocytes Rat,rat hepatocytes; Compound A 1.1 (μM),96%
same,ATP (% Cell Survival) Hepatocytes Rat,rat hepatocytes; Compound A 1.1 (μM),114%
same,AK release (% Cell Survival) Hepatocytes Rat,rat hepatocytes; Compound A 3.3 (μM),97%
same,ATP (% Cell Survival) Hepatocytes Rat,rat hepatocytes; Compound A 3.3 (μM),87%
same,AK release (% Cell Survival) Hepatocytes Rat,rat hepatocytes; Compound A 10.0 (μM),93%
same,ATP (% Cell Survival) Hepatocytes Rat,rat hepatocytes; Compound A 10.0 (μM),72%
same,AK release (% Cell Survival) Hepatocytes Rat,rat hepatocytes; Compound A 30.0 (μM),91%
same,ATP (% Cell Survival) Hepatocytes Rat,rat hepatocytes; Compound A 30.0 (μM),57%
same,Survival Number (No. Alive/Total),[1]; Compound A 2 mg/kg p.o. once daily Day 0 to 9,4/10
same,Caecum Weight,"[1]; Compound A 2 mg/kg, 2 mg/kg",0.347 g and 0.170 g and 0.150 g and 0.205 g and 0.377 g and 0.233 g and 0.251 g and 0.322 g
same,Tumour Weight,"[1]; Compound A 2 mg/kg, 2 mg/kg",0.001 g (3×) and 0.000 g and 0.005 g (2×) and 0.122 g and 0.003 g
same,Average Caecum Weight,[1]; Compound A 2 mg/kg,0.296 g
same,Average Tumour Weight,[1]; Compound A 2 mg/kg,0.033 g
same,Caecum Weight,"[1]; Compound A 10 mg/kg, 10 mg/kg",0.287 g and 0.198 g and 0.258 g and 0.111 g and 0.263 g and 0.237 g and 0.234 g and 0.289 g and 0.320 g and 0.251 g
same,Tumour Weight,"[1]; Compound A 10 mg/kg, 10 mg/kg",0.000 g (3×) and 0.257 g and 0.008 g and 0.422 g and 0.001 g and 0.014 g and 0.004 g and 0.100 g
same,Average Caecum Weight,[1]; Compound A 10 mg/kg,0.244 g
same,Average Tumour Weight,[1]; Compound A 10 mg/kg,0.078 g
same,Caecum Weight,"[1]; Compound A 50 mg/kg, 50 mg/kg",0.230 g and 0.254 g and 0.238 g and 0.201 g and 0.337 g and 0.169 g and 0.328 g and 0.217 g and 0.312 g and 0.463 g
same,Tumour Weight,"[1]; Compound A 50 mg/kg, 50 mg/kg",0.002 g (2×) and 0.000 g and 0.004 g and 0.166 g and 0.655 g and 0.001 g (3×) and 0.026 g
same,Average Caecum Weight,[1]; Compound A 50 mg/kg,0.290 g
same,Average Tumour Weight,[1]; Compound A 50 mg/kg,0.122 g
same,GI50,"A375 cells; Homo sapiens, A-375, 168 h, A375 Melanoma, BRAF V600E, 0.15% agarose, read-out: Anchorage-Independent GI50 (nM ± sd)",68 ± 34 nM
